This is an account of results in patent US5614504A, “Method of making inosine monophosphate derivatives and immunopotentiating uses thereof” (The University of South Florida, priority 1995, dated 1997).

One assay relates to anti-HBs. Put plainly: Anti-HBs responses in immunocompromised irradiated DBA/2 mice (EIA). The assay is classed as in vivo. The settings on record: for anti-HBs, Day 21: p < 0.01. On the procedure: Experimental mice were irradiated at a dose rate of 25 rad/min (1 rad=0.01 Gy) using a ^60 Coγ beam source for four minutes. Data represent the average of ten animals in each group.
Serum specimens from immunized mice were tested for the presence of anti-HBs in an enzyme immunoassay (EIA) using the diagnostic kits of Roche Diagnostica as per the manufacturer's instructions. The anti-HBs EIA kit (Roche), has a sensitivity of <10 IU/1.
Antibody concentration was determined with the help of calibration curves designed on the basis of the results of anti-HBs detection in standard serum panel (Roche Diagnostica) with the concentrations, as follows: 10 IU/l; 50 IU/l; 100 IU/l and 150 IU/l. The results of the two experiments were used for the calculation of mean values.
In a second set of experiments, the effect of MIMP on the induction of a specific immune response to HBsAg in immunocompromised DBA/2 mice subjected to ionizing radiation was analyzed using the same vaccination schemes as set forth for the control DBA/2.

The subject of assay [1] is Salm. typhimurium strain 415. Put plainly: Salmonella infection mortality. Type of assay: in vivo, BALB/c mice. The settings on record: the various treatments of MIMP; p<0.01; control about 2.5 days.
Assay [2] has as its system spleen plaque antibody forming cells (PFC). Put plainly: In vivo stimulation of PFC response to SRBC. Further details: species or system mice. As to the method: Five days later, suspensions of spleen cells were prepared and their viability was determined by trypan blue exclusion test. Cells were suspended at 3×10^6 /ml. 0.2 ml of spleen cell suspension was mixed with 0.8 ml of 0.7% agarose and 0.2 ml of freshly washed SRBC (at 6×10^5 /ml). The mixture was immediately poured into the plate and allowed to solidify. After 60 minutes of incubation at 37° C. in a humid atmosphere of 5% CO2 in the air, the plate was flooded with 1 ml of guinea-pig complement diluted 1:5 with Hank's balanced saline. Hemolytic plaques were counted with an inverted scope using 4× magnification.
Spleen plaque antibody forming cells (PFC) were measured at the end of the five days.

Assay [3] concerns human peripheral blood lymphocytes (HPBL). Put plainly: Response of normal HPBL to PWM. The assay is classed as cell-based. The settings on record: PWM 0.5 μg/ml. As to the method:
In vitro: Both human peripheral blood lymphocytes (HPBL) and mouse spleen lymphocytes (MSL) were employed. Proliferation was assayed by tritiated thymidine incorporation, as described in Hadden et al. (1975) and Hadden et al. (1986). For HPBL transformation, PHA and PWM were used at 0.5 μg/ml. For MSL transformation, Con A was used at 0.5 μg/ml, phytohemagglutinin (PHA, Murex Diagnostics, Atlanta, Ga.) at 0.5 μg/ml and lipopolysaccharide endotoxin (LPS, Sigma, St. Louis, Mo.) at 10 μg/ml. When protected-IMP derivatives were added, they were added at the onset of culture at varying concentrations ranging from 0.1 μg/ml to 100 μg/ml.
Murine splenocytes were obtained from BALB/c mice, 4-12 months old, by standard procedures (Hadden et al., 1975). They were cultured in microwell plates at 1.5×10^6 cells/ml of minimal essential media (MEM, Gibco Labs, Grand Island, N.Y.) with 5% fetal calf serum (FCS, Hyclone Labs, Logan, Utah) and tested for their proliferative response to mitogens as measured by incorporation of (^3 H) tritiated thymidine (New England Nuclear, Wilmington Del., […]; 2.5 μCi/ml) during a terminal pulse followed by liquid scintillation spectrometry. Human cells were seeded at […] and cultured for 48 hours with an 18 hour pulse with ^3 H-thymidine.
Normal human peripheral blood lymphocytes (HPBL) were stimulated with the mitogenic agents PHA or PWM. […]

Setting [4] is: scheme 6: Radiation + scheme N2 (HBsAg + MIMP per os).
Where [5] appears, read: scheme 7: Radiation + scheme N3 (HBsAg + MIMP i.p. then per os).

As to `COP(=O)(O)OC[C@H]1O[C@@H](n2cnc3c(=O)[nH]cnc32)[C@H](O)[C@@H]1O` [Me-IMP, Methyl-5'-inosine-monophosphate], the “anti-HBs, Day 14” value in the assay on anti-HBs (setting [4]) and with anti-HBs (setting [5]) was less than 10 IU/1 in each case. Further, the “anti-HBs, Day 21” value with anti-HBs (setting [4]) and with anti-HBs (setting [5]) was 100 IU/1 in each case. For the same compound, the MST result in assay [1] was “about four”. In addition, the “effect on PFC response” value in assay [2] (50 mg/kg of body weight ip with SRBC, PFC five days later) is listed as “significantly stimulated”. In addition, the “dose of optimal stimulation of PFC response” value in assay [2] (intraperitoneal) was 50 mg/kg of body weight. For the same compound, in assay [2] (intraperitoneal, below 50 mg/kg), the “PFC activity at lower doses” value is “active at lower doses”. Further, the “peak dose for stimulation of PFC response” value in assay [2] (oral, with SRBC antigen and daily for five days) is given as 50 mg/kg of body weight. In addition, the “effect on PWM response of HPBL” value in assay [3] was “not affected”.
